Data set [1] concerns SARS-CoV-2. Conditions: read-out: IC50 against SARS-CoV-2, Full-time treatment; cited from earlier work.
For data set [2], the system named is Influenza A/Puerto Rico/8/34 (H1N1).
The subject of data set [3] is A/Aichi/2/68 (H3N2). The data set is described as follows: microbe, parasite or virus in culture. Type of data set: cell-based. Conditions: read-out: IC50 ± SD, H3N2.
The subject of data set [4] is influenza A/PR/8/34 (H1N1) virus. Also on record: species or system KM mice. The settings on record: mouse, in vivo; for body weight of infected mice: po.
For data set [5], the target named is hemagglutinin (HA) (Influenza A virus, UniProt P03452).
Data set [6] concerns A/Puerto Rico/8/34 (H1N1) influenza virus. Format: cell-based.
Data set [7] relates to influenza A/PR/8/34 (H1N1) virus. Type of data set: cell-based.
In data set [8] the test system is Influenza A/Puerto Rico/8/34 (H1N1). Type of data set: cell-based, influenza A virus.
The subject of data set [9] is influenza A virus. Format: cell-based.
Data set [10] deals with MDCK cells.
In data set [11] the test system is Vero-E6 cells.
In data set [12] the test system is influenza virus A/PR/8/34 (H1N1).
The conditions of data set [13]: mouse, in vivo, po, 10 mg/kg.
The nature of data set [14]: in vitro. Conditions: dog.
Data set [15] relates to Influenza A/Puerto Rico/8/34 (H1N1). The data set is described as follows: microbe, parasite or virus in culture. Conditions: H1N1|PR8, MDCK, read-out: IC50 ± SD, PR8.

“Also recorded” adds a separate entry of the source. Read-outs that look alike come from different tables or passages of the source. Bounds are passed on as bounds.

Chain of hemagglutinin (HA) (P03452 18-342 limits assumed): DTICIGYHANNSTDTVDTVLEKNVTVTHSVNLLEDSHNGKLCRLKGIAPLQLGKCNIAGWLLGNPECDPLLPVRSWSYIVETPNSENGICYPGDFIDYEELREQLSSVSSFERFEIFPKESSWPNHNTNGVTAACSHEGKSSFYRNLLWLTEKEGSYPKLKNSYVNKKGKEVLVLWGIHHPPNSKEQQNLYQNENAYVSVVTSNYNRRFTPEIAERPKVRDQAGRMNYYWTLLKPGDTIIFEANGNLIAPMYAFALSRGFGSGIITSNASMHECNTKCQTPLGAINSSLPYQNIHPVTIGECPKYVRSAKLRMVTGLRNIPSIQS
Chain of hemagglutinin (HA) (P03452 344-565 limits assumed): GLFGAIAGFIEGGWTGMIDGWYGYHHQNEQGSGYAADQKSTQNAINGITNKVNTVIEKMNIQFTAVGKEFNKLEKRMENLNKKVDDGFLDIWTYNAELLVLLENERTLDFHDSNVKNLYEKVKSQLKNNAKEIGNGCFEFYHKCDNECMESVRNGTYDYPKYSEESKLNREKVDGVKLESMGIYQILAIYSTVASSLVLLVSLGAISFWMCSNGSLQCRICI

A word on the IC50: it is the concentration at which inhibition is half-maximal. With `CCN(CC)CCCC(C)Nc1ccnc2cc(Cl)ccc12` (centres unmarked) [chloroquine], in data set [1], the half-maximal inhibitory concentration (IC50) was 10 µM.
In data set [2] (/Puerto Rico/8/34, 48 h), `CC(C)CCC[C@@H](C)[C@H]1CC[C@H]2[C@@H]3CC=C4C[C@@H](OCC(=O)N[C@@H](CCCCN)C(=O)N[C@@H](CCCCN)C(=O)N[C@@H](Cc5c[nH]c6ccccc56)C(=O)N[C@@H](CCCCN)C(N)=O)CC[C@]4(C)[C@H]3CC[C@]12C` [S-KKWK, reference compound] showed a concentration for half-maximal inhibition (IC50) of 1850 ± 920 nM.
Turning to protoporphyrin IX [PPIX], the IC50 in [3] was 1490 ± 660 nM; in data set [2] (read-out: IC50 ± SD, PR8), 1880 ± 850 nM; in data set [12] (read-out: IC50 ± SD, After infection), more than 17.8 µM; in [12] (read-out: IC50 ± SD, During infection), 8.87 ± 3.07 µM; in [12] (read-out: IC50 ± SD, Pretreatment of cell) it was more than 17.8 µM; in [12] (read-out: IC50 ± SD, Pretreatment of virus), 1.88 ± 0.85 µM. Besides, the “survival rate and mean survival time of infected mice” value in [4] is recorded as “apparently prolonged; also recorded: apparently increased”. For the same molecule, the “body weight of infected mice” value in data set [4] is listed as “slowly increased”. Further, the “hemagglutinin inhibition (viral adsorption to target cells)” value in data set [5] is “negative results”. Besides, in data set [6], the “NP expression (green fluorescence) after treatment” value was “apparently decreased”. In addition, in data set [7], the “inhibitory effect by time of addition (viral titer in supernatant)” value is “better inhibitory effect”. For the same molecule, the “antiviral activity with red light versus no light” value in data set [8] is “no significant difference”. Besides, the “antiviral activity with increasing added lipids” value in data set [9] is reported as “decreased along with the increase of lipids”. The CC50 in [10] is 230 ± 4.53 µM; in data set [11], 120.8 ± 0.95 µM. The molecule further yielded a CC90 in data set [10] of 316 µM. The “time of maximum peak of PPIX in plasma” value in data set [13] is given as “about 2 h”.
Regarding `C=Cc1c(C)c2cc3nc(c4c5[nH]c(cc6nc(cc1[nH]2)C(C)=C6CC)c(C)c5C(=O)C4)[C@@H](CCC(=O)O)[C@@H]3C` [PPa, pyropheophorbide a, reference compound], the half-maximal inhibitory concentration (IC50) in data set [3] (Influenza A virus, H3N2, MDCK) came to 1230 ± 1100 nM; in [15], 320 ± 280 nM. The same molecule registered a CC50 in data set [14] of 140 ± 3.61 µM.
Regarding `CCOC(=O)C1=C[C@@H](OC(CC)CC)[C@H](NC(C)=O)[C@@H](N)C1` [oseltamivir phosphate, reference compound], the “body weight of infected mice” value in data set [4] was “slowly increased”.

Source of the values: article PMC7784547 (Bioorganic Chemistry, 2021).
